The term IC50 denotes the midpoint of a concentration-inhibition curve. Read a high IC50 as a need for much substance.

In assay [1] the target is T1, Bovine serum albumin (BSA, fraction V) (Bos taurus, UniProt P02769).
T1 construct: gene ALB; mature native serum albumin, 585 residues, fraction V from Roche; heat/acid-induced amyloid aggregation
As to the kind of experiment: ThT fluorescence, inhibition of BSA amyloid aggregation. It is filed as biochemical.

For assay [2], the target named is T1, Bovine serum albumin (BSA, fraction V). The assay can be described thus: ThT fluorescence, BSA fibrillation at […]. It is filed as biochemical. The conditions noted are these: BSA 100 μmol/L, glycine buffer pH 3, NaCl 100 mM, 65°C.

T1 sequence (P02769 25-607): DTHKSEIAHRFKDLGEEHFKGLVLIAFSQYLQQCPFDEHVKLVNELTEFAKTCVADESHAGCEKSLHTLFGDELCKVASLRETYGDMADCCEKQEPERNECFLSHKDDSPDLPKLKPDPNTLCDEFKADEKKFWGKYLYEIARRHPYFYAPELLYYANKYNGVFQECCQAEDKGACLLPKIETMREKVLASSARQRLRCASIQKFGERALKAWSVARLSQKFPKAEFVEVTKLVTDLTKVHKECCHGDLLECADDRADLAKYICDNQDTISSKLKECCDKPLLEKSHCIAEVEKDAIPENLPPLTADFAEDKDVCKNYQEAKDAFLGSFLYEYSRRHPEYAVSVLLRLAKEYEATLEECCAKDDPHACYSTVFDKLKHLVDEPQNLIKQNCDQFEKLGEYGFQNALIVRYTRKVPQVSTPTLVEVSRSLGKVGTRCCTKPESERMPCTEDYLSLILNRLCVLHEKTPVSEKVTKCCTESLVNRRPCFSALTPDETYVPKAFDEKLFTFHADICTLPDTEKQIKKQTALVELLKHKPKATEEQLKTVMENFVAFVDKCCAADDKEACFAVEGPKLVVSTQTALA

`NCCNC(=O)CCC(=O)Nc1cccc2ccccc12` [A, N-(2-aminoethyl)-N'-1-naphthylsuccinamide]: in assay [1], half-maximal inhibition (IC50) required 6.34 µM.
Regarding `CSC(=S)NCCNC(=O)CCC(=O)Nc1cccc2ccccc12` [B, methyl (2-{[4-(1-naphthylamino)-4-oxobutanoyl]amino}ethyl) dithiocarbamate], in assay [2], the “% ThT fluorescence change at 100 μmol/L” value was “chaperones A, C, D, B and E had a strong inhibitory effect on BSA fibrillation”.
In assay [1], `O=C(O)CCNC(=O)CCC(=O)Nc1cccc2ccccc12` [D, N-[4-(1-naphthylamino)-4-oxobutanoyl]-β-alanine] registered an IC50 of 6.37 µM.
As to `O=C(O)CCCCCNC(=O)CCC(=O)Nc1cccc2ccccc12` [E, 6-{[4-(1-naphthylamino)-4-oxobutanoyl]amino} hexanoic acid], in assay [1], the IC50 was found to be 5.38 µM. The IC50 values of the last two compounds are within 1.5-fold of each other.
The same measure, in the same setting: the result for `O=C(CCC(=O)Nc1cccc2ccccc12)NCCNC(=O)CCC(=O)Nc1cccc2ccccc12` [F, N3,N3'-ethane-1,2-dyilbis(N1-1-naphthylsuccinamide)] reads 40 µM.
Turning to `NCCCCNC(=O)CCC(=O)Nc1cccc2ccccc12` [G, N-(4-aminobutyl)-N'-1-naphthylsuccinamide], the “% ThT fluorescence change at 100 μmol/L” value in assay [2] (aggregation enhancer) is “At the same concentrations, the chaperones F and G increased BSA fibrillation”.

These data come from publication PMC4556714, “Drug Development in Conformational Diseases: A Novel Family of Chemical Chaperones that Bind and Stabilise Several Polymorphic Amyloid Structures” (PLoS ONE, 2015).
